Here are results for eight compounds from patent US20180084779A1, “PLANT DISEASE CONTROL AGENT AND USE THEREOF” (NIHON NOHYAKU CO., LTD., priority 2015, published 2018).

For assay [1], the system named is Septoria tritici, KUK-1-21 Strain. Briefly: Test for wheat leaf blotch, fluoroimide and/or DMI agent sprayed on wheat pots, lesion area index 17 days after inoculation. Type of assay: in vivo. Particulars: for Controlling effect Combination with fluoroimide / Controlling effect DMI alone: 17 days; for Controlling effect DMI alone: fluoroimide 0 ppm. As to the method: (§1) Test for Wheat Leaf Blotch (Septoria tritici, KUK-1-21 Strain):
(§2) Agrochemical liquids containing a predetermined concentration of fluoroimide and/or a predetermined concentration of each DMI agent were applied to wheat in a predetermined amount with a spray gun. After air drying, a suspension of fungus spore of Septoria tritici adjusted to 1.0×10^7 spores/ml was inoculated by spraying. After that, the wheat pots were kept in a growth chamber under a light condition of at 15° C. 100% RH to encourage the development of the disease. Seventeen days after the inoculation, the lesion area index (0-10) was determined for the evaluation of the control effect.
(§3) Control effect (%)=[(Disease index of no treatment area−Disease index of treatment area)/Disease index of no treatment area]×100 [Formula 1]
(§4) The expected effect (expected value E) by using an active ingredient in combination with each of other active ingredients in the above tests was determined by the following Colby formula (see COLBY, S. R., Weeds 15: 20-22 (1967)).
(§5) E(Expected effect)=(X+Y)−(X×Y/100) [Formula 2]
X=controlling effect of fungicide A alone
Y=controlling effect of fungicide B alone

For assay [2] the test system is unchanged. Kind of assay: Test for wheat leaf blotch, fluoroimide and/or SDHI agent sprayed on wheat pots, lesion area index 21 days after inoculation. Type of assay: in vivo. As to conditions: for Control effect Combination with fluoroimide / Control effect SDHI alone: 21 days; for Control effect SDHI alone: fluoroimide 0 ppm. How it is done: as §3, §4, §5, §1
as §2, with “SDHI” for “DMI”, “Twenty-one” for “Seventeen”, “set and” for “determined for”, “controlling effects and expected values are examined in” for “evaluation of”, “same manner as Example 1.” for “control effect.”

Setting [3] is: DMI agent 1 ppm + fluoroimide 50 ppm.
Setting [4] is: DMI agent 1 ppm + fluoroimide 100 ppm.
The mark [5] stands for this setting: DMI agent 3 ppm + fluoroimide 50 ppm.
Setting [6] is: DMI agent 3 ppm + fluoroimide 100 ppm.
Where [7] appears, read: DMI agent 10 ppm + fluoroimide 50 ppm.
The mark [8] stands for this setting: DMI agent 10 ppm + fluoroimide 100 ppm.
[9] abbreviates: SDHI agent 1 ppm + fluoroimide 50 ppm.
The mark [10] stands for this setting: SDHI agent 1 ppm + fluoroimide 100 ppm.
Setting [11] is: SDHI agent 3 ppm + fluoroimide 50 ppm.
Setting [12] is: SDHI agent 3 ppm + fluoroimide 100 ppm.
Setting [13] is: SDHI agent 10 ppm + fluoroimide 50 ppm.
Setting [14] is: SDHI agent 10 ppm + fluoroimide 100 ppm.

SMILES strings stand for the structures.

As for `Fc1ccc([C@]2(Cn3cncn3)O[C@H]2c2ccccc2Cl)cc1` (racemic) [epoxiconazole], the “Controlling effect Expected value (Colby)” value was 25% in assay [1] (setting [3]); 50% in assay [1] (setting [4]); 63% in assay [1] (setting [5]); 75% in assay [1] (setting [6]); 71% in assay [1] (setting [7]); 81% in assay [1] (setting [8]). The “Controlling effect Combination with fluoroimide” value (from here on “Controlling effect Combination”) in assay [1] (setting [3]) is 19%; in assay [1] (setting [4]), 72%; in assay [1] (setting [5]), 62%; in assay [1] (setting [6]), 83%; in assay [1] (setting [7]) it was 84%; in assay [1] (setting [8]) it was 83%. In addition, the entries for the “Controlling effect DMI alone” value in assay [1] (DMI agent 1 ppm), in assay [1] (DMI agent 3 ppm) and in assay [1] (DMI agent 10 ppm) were 0%, 50% and 61%, respectively.

For `Cn1cc(C(=O)Nc2ccc(F)cc2-c2ccc(Cl)c(Cl)c2)c(C(F)F)n1` [bixafen], the “Control effect Expected value (Colby)” value in assay [2] (setting [9]) worked out at 76%; in assay [2] (setting [10]) it was 81%; in assay [2] (setting [11]), 86%; in assay [2] (setting [12]), 89%; in assay [2] (setting [13]) it was 100%; in assay [2] (setting [14]), 100%. For the same compound, the “Control effect Combination with fluoroimide” value in assay [2] (setting [9]) is reported as 95%; in assay [2] (setting [10]), 85%; in assay [2] (setting [11]), 100%; in assay [2] (setting [12]) it was 90%; in assay [2] (setting [13]) it was 100%; in assay [2] (setting [14]) it was 100%. Moreover, the “Control effect SDHI alone” value is 75% in assay [2] (SDHI agent 1 ppm), 85% in assay [2] (SDHI agent 3 ppm) and 100% in assay [2] (SDHI agent 10 ppm).

As for `CC1COC(Cn2cncn2)(c2ccc(Oc3ccc(Cl)cc3)cc2Cl)O1` (stereo not drawn) [difenoconazole], the “Controlling effect Expected value (Colby)” value in assay [1] (setting [3]) is given as 25%; in assay [1] (setting [4]) it was 50%; in assay [1] (setting [5]), 71%; in assay [1] (setting [6]), 81%; in assay [1] (setting [7]) it was 71%; in assay [1] (setting [8]) it was 81%. The “Controlling effect Combination” value came to 52% in assay [1] (setting [3]); 94% in assay [1] (setting [4]); 89% in assay [1] (setting [5]); 89% in assay [1] (setting [6]); 89% in assay [1] (setting [7]); 100% in assay [1] (setting [8]). Moreover, the “Controlling effect DMI alone” value in assay [1] (DMI agent 1 ppm) amounted to 0%; in assay [1] (DMI agent 3 ppm) it was 61%; in assay [1] (DMI agent 10 ppm), 61%.

In the case of `CC1(C)CCC(Cc2ccc(Cl)cc2)C1(O)Cn1cncn1` (stereo not drawn) [metconazole], the “Controlling effect Expected value (Colby)” value was 30% in assay [1] (setting [3]); 53% in assay [1] (setting [4]); 46% in assay [1] (setting [5]); 64% in assay [1] (setting [6]); 92% in assay [1] (setting [7]); 95% in assay [1] (setting [8]). The “Controlling effect Combination” value is recorded as 68% in assay [1] (setting [3]); 78% in assay [1] (setting [4]); 84% in assay [1] (setting [5]); 89% in assay [1] (setting [6]); 95% in assay [1] (setting [7]); 89% in assay [1] (setting [8]). The “Controlling effect DMI alone” value was determined as 6% in assay [1] (DMI agent 1 ppm), 28% in assay [1] (DMI agent 3 ppm) and 89% in assay [1] (DMI agent 10 ppm).

On to `CCCN(CCOc1c(Cl)cc(Cl)cc1Cl)C(=O)n1ccnc1` [prochloraz], for which the “Controlling effect Expected value (Colby)” value in assay [1] (setting [3]) turned out to be 25%; in assay [1] (setting [4]) it was 50%; in assay [1] (setting [5]) it was 33%; in assay [1] (setting [6]), 56%; in assay [1] (setting [7]), 30%; in assay [1] (setting [8]), 53%. Also, the “Controlling effect Combination” value is reported as 57% in assay [1] (setting [3]); 72% in assay [1] (setting [4]); 41% in assay [1] (setting [5]); 72% in assay [1] (setting [6]); 62% in assay [1] (setting [7]); 67% in assay [1] (setting [8]). Also, the “Controlling effect DMI alone” value was determined as 0% in assay [1] (DMI agent 1 ppm), 11% in assay [1] (DMI agent 3 ppm) and 6% in assay [1] (DMI agent 10 ppm).

`CCCC1COC(Cn2cncn2)(c2ccc(Cl)cc2Cl)O1` (stereo not drawn) [propiconazole]: the “Controlling effect Expected value (Colby)” value in assay [1] (setting [3]) amounted to 25%; in assay [1] (setting [4]) it was 50%; in assay [1] (setting [5]), 46%; in assay [1] (setting [6]) it was 64%; in assay [1] (setting [7]) it was 33%; in assay [1] (setting [8]) it was 56%. Further, the “Controlling effect Combination” value is 62% in assay [1] (setting [3]); 72% in assay [1] (setting [4]); 89% in assay [1] (setting [5]); 94% in assay [1] (setting [6]); 89% in assay [1] (setting [7]); 100% in assay [1] (setting [8]). Further, the results for the “Controlling effect DMI alone” value in assay [1] (DMI agent 1 ppm), in assay [1] (DMI agent 3 ppm) and in assay [1] (DMI agent 10 ppm) were 0%, 28% and 11%, respectively.

Take `OC(Cc1ccccc1Cl)(Cn1nc[nH]c1=S)C1(Cl)CC1` (stereo not drawn) [prothioconazole]: the “Controlling effect Expected value (Colby)” value in assay [1] (setting [3]) worked out at 25%; in assay [1] (setting [4]) it was 50%; in assay [1] (setting [5]), 25%; in assay [1] (setting [6]), 50%; in assay [1] (setting [7]) it was 25%; in assay [1] (setting [8]), 50%. The “Controlling effect Combination” value turned out to be 3% in assay [1] (setting [3]); 61% in assay [1] (setting [4]); 30% in assay [1] (setting [5]); 72% in assay [1] (setting [6]); 73% in assay [1] (setting [7]); 67% in assay [1] (setting [8]). Moreover, the “Controlling effect DMI alone” value in assay [1] (DMI agent 1 ppm), in assay [1] (DMI agent 3 ppm) and in assay [1] (DMI agent 10 ppm) was 0% throughout.

`CC(C)(C)C(O)(CCc1ccc(Cl)cc1)Cn1cncn1` (stereo not drawn) [tebuconazole]: the “Controlling effect Expected value (Colby)” value turned out to be 30% in assay [1] (setting [3]); 53% in assay [1] (setting [4]); 58% in assay [1] (setting [5]); 72% in assay [1] (setting [6]); 71% in assay [1] (setting [7]); 81% in assay [1] (setting [8]). Besides, the “Controlling effect Combination” value in assay [1] (setting [3]) was 62%; in assay [1] (setting [4]), 67%; in assay [1] (setting [5]), 68%; in assay [1] (setting [6]), 94%; in assay [1] (setting [7]), 89%; in assay [1] (setting [8]), 94%. For the same compound, the figures for the “Controlling effect DMI alone” value in assay [1] (DMI agent 1 ppm), in assay [1] (DMI agent 3 ppm) and in assay [1] (DMI agent 10 ppm) were 6%, 44% and 61%, respectively.
